Where a name gives a salt, the structure may show the parent alone. Read-outs that look alike come from different tables or passages of the source.
System: Acinetobacter baumannii ATCC17961
Assay: Antimicrobial susceptibility testing: 90% growth inhibitory concentration (IC90) determination in Iso-Sensitest broth, OD600 growth
Format: cell-based
Method in brief: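 OD600 read every 20 min for 16 h at 35±2° C; inhibition taken in log phase to derive IC90. Twofold, 10-point dilutions (e.g. 50–0.097 μM final), inoculum ~5×10^(5) CFU/ml.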

[1] = Acinetobacter baumannii, ATCC17961, 16 h, strain ATCC 17961, OD600 growth over 16 h, read-out: A. baumannii ATCC 17961 IC90
[2] = strain ATCC 17961, OD600 growth over 16 h, read-out: A. baumannii ATCC 17961 IC90
[3] = Acinetobacter baumannii, ATCC17961, 16 h, read-out: A. baumannii ATCC 17961 IC90 (uM), strain ATCC 17961, OD600 growth over 16 h

| SMILES | IC90 [1] [µM] | IC90 [2] [µM] | also measured |
| --- | --- | --- | --- |
| N#CCn1cc(-c2cnc3c(Nc4ccc(C(=O)N5CC(O)C5)c(Cl)c4)nccn23)c(C(F)(F)F)n1 [Example 236, 2-[4-[8-[3-chloro-4-(3-hydroxyazetidine-1-carbonyl)anilino]imidazo[1,2-a]pyrazin-3-yl]-3-(trifluoromethyl)pyrazol-1-yl]acetonitrile] | 0.193 | – | – |
| C[C@@H](O)CNC(=O)c1ccc(Nc2nccn3c(-c4cn(CC#N)nc4C(F)(F)F)cnc23)cc1Cl [Example 237, 2-chloro-4-[[3-[1-(cyanomethyl)-3-(trifluoromethyl)pyrazol-4-yl]imidazo[1,2-a]pyrazin-8-yl]amino]-N-[(2R)-2-hydroxypropyl] benzamide] | – | 0.196 | – |
| N[C@H]1CC[C@@H](NC(=O)N2CCN(C(=O)c3ccc(Nc4nccn5c(-c6c[nH]nc6C(F)(F)F)cnc45)cc3Cl)CC2)C1 [Example 238, N-[(1R,3S)-3-aminocyclopentyl]-4-[2-chloro-4-[[3-[3-(trifluoromethyl)-1H-pyrazol-4-yl]imidazo[1,2-a]pyrazin-8-yl]amino]benzoyl] piperazine-1-carboxamide formate] | – | 0.2 | – |
| COCCNC(=O)c1ccc(Nc2nccn3c(-c4cn(CC#N)nc4C(F)(F)F)cnc23)cc1Cl [Example 239, 2-chloro-4-[[3-[1-(cyanomethyl)-3-(trifluoromethyl)pyrazol-4-yl]imidazo[1,2-a]pyrazin-8-yl]amino]-N-(2-methoxyethyl) benzamide] | – | 0.211 | – |
| C[C@H](O)CNC(=O)c1ccc(Nc2nccn3c(-c4cn(CC#N)nc4C(F)(F)F)cnc23)cc1Cl [Example 240, 2-chloro-4-[[3-[1-(cyanomethyl)-3-(trifluoromethyl)pyrazol-4-yl]imidazo[1,2-a]pyrazin-8-yl]amino]-N-[(2S)-2-hydroxypropyl] benzamide] | – | 0.253 | – |
| CCc1cc(Nc2nccn3c(-c4cn(C5COC5)nc4C(F)(F)F)cnc23)ccc1C(=O)NCCOCCN [Example 241, N-[2-(2-aminoethoxy)ethyl]-2-ethyl-4-[[3-[1-(oxetan-3-yl)-3-(trifluoromethyl)pyrazol-4-yl]imidazo[1,2-a]pyrazin-8-yl]amino]benzamide formate] | – | – | IC90 [3]: 0.322 µM |
| CC1(O)CN(C(=O)c2ccc(Nc3nccn4c(-c5cn(CC#N)nc5C(F)(F)F)cnc34)cc2Cl)C1 [Example 242, 2-[4-[8-[3-chloro-4-(3-hydroxy-3-methylazetidine-1-carbonyl)anilino]imidazo[1,2-a]pyrazin-3-yl]-3-(trifluoromethyl)pyrazol-1-yl]acetonitrile] | 0.33 | – | – |
| N#CCn1cc(-c2cnc3c(Nc4ccc(C(=O)N5CC[C@H](O)C5)c(Cl)c4)nccn23)c(C(F)(F)F)n1 [Example 243, 2-[4-[8-[3-chloro-4-[(3S)-3-hydroxypyrrolidine-1-carbonyl]anilino]imidazo[1,2-a]pyrazin-3-yl]-3-(trifluoromethyl)pyrazol-1-yl]acetonitrile] | 0.384 | – | – |
| N#CCn1cc(-c2cnc3c(Nc4ccc(C(=O)N5CC[C@@H](O)C5)c(Cl)c4)nccn23)c(C(F)(F)F)n1 [Example 244, 2-[4-[8-[3-chloro-4-[(3R)-3-hydroxypyrrolidine-1-carbonyl]anilino]imidazo[1,2-a]pyrazin-3-yl]-3-(trifluoromethyl)pyrazol-1-yl]acetonitrile] | 0.411 | – | – |
| N[C@@H]1CN[C@@H](C(=O)N2CCN(C(=O)c3ccc(Nc4nccn5c(-c6c[nH]nc6C(F)(F)F)cnc45)cc3Cl)CC2)C1 [Example 245, [4-[(2R,4S)-4-aminopyrrolidine-2-carbonyl]piperazin-1-yl]-[2-chloro-4-[[3-[3-(trifluoromethyl-1H-pyrazol-4-yl]imidazo[1,2-a]pyrazin-8-yl]amino]phenyl]methanone formate] | – | 0.45 | – |
| N#CCCn1cc(-c2cnc3c(Nc4ccc(C(=O)N5CCN(C(=O)NC6CNC6)CC5)c(Cl)c4)nccn23)c(C(F)(F)F)n1 [Example 246, N-(azetidin-3-yl)-4-[2-chloro-4-[[3-[1-(2-cyanoethyl)-3-(trifluoromethyl)pyrazol-4-yl]imidazo[1,2-a]pyrazin-8-yl]amino]benzoyl] piperazine-1-carboxamide formate] | – | 0.533 | – |
| O=C(c1ccc(Nc2nccn3c(-c4c[nH]nc4C(F)(F)F)cnc23)cc1Cl)N1CCN(C(=O)[C@]2(O)CCCNC2)CC1 [Example 247, [2-chloro-4-[[3-[3-(trifluoromethyl)-1H-pyrazol-4-yl]imidazo[1,2-a]pyrazin-8-yl]amino]phenyl]-[4-[(3S)-3-hydroxypiperidine-3-carbonyl]piperazin-1-yl]methanone] | 0.116 | – | – |
| O=C(c1ccc(Nc2nccn3c(-c4c[nH]nc4C(F)(F)F)cnc23)cc1Cl)N1CCN(C(=O)[C@@]2(O)CCCNC2)CC1 [Example 248, [2-chloro-4-[[3-[3-(trifluoromethyl)-1H-pyrazol-4-yl]imidazo[1,2-a]pyrazin-8-yl]amino]phenyl]-[4-[(3R)-3-hydroxypiperidine-3-carbonyl]piperazin-1-yl]methanone] | 0.311 | – | – |
| C#CCn1cc(-c2cnc3c(Nc4ccc(C(=O)NCCOCCN)c(Cl)c4)nccn23)c(C(F)(F)F)n1 [Example 249, N-[2-(2-aminoethoxy)ethyl]-2-chloro-4-[[3-[1-prop-2-ynyl-3-(trifluoromethyl)pyrazol-4-yl]imidazo[1,2-a]pyrazin-8-yl]amino]benzamide] | 0.047 | – | – |
| NCCOCCNC(=O)c1ccc(Nc2nccn3c(-c4cn(CCF)nc4C(F)(F)F)cnc23)cc1Cl [Example 250, N-[2-(2-aminoethoxy)ethyl]-2-chloro-4-[[3-[1-(2-fluoroethyl)-3-(trifluoromethyl)pyrazol-4-yl]imidazo[1,2-a]pyrazin-8-yl]amino]benzamide] | 0.084 | – | – |
| CCc1cc(Nc2nccn3c(-c4cn(CC#N)nc4C(F)(F)F)cnc23)ccc1C(=O)NCC#N [Example 251, N-(cyanomethyl)-4-[[3-[1-(cyanomethyl)-3-(trifluoromethyl)pyrazol-4-yl]imidazo[1,2-a]pyrazin-8-yl]amino]-2-ethylbenzamide] | 0.136 | – | – |
| NCCOCCNC(=O)c1ccc(Nc2nccn3c(-c4cn(CC(F)F)nc4C(F)(F)F)cnc23)cc1Cl [Example 252, N-[2-(2-aminoethoxy)ethyl]-2-chloro-4-[[3-[1-(2,2-difluoroethyl)-3-(trifluoromethyl)pyrazol-4-yl]imidazo[1,2-a]pyrazin-8-yl]amino] benzamide] | – | 0.169 | – |
| Cc1cc(Nc2nccn3c(-c4cn(CCF)nc4C(F)(F)F)cnc23)ccc1C(=O)NCCOCCN [Example 253, N-[2-(2-aminoethoxy)ethyl]-4-[[3-[1-(2-fluoroethyl)-3-(trifluoromethyl)pyrazol-4-yl]imidazo[1,2-a]pyrazin-8-yl]amino]-2-methylbenzamide] | 0.198 | – | – |
| Cc1cc(Nc2nccn3c(-c4cn(CC(F)F)nc4C(F)(F)F)cnc23)ccc1C(=O)NCCOCCN [Example 254, N-[2-(2-aminoethoxy)ethyl]-4-[[3-[1-(2,2-difluoroethyl)-3-(trifluoromethyl)pyrazol-4-yl]imidazo[1,2-a]pyrazin-8-yl]amino]-2-methylbenzamide] | 0.222 | – | – |
| N#CCCn1cc(-c2cnc3c(Nc4ccc(C(=O)N5CCN(C(=O)CCN)CC5)c(Cl)c4)nccn23)c(C(F)(F)F)n1 [Example 256, 3-[4-[8-[4-[4-(3-aminopropanoyl)piperazine-1-carbonyl]-3-chloroanilino]imidazo[1,2-a]pyrazin-3-yl]-3-(trifluoromethyl)pyrazol-1-yl]propanenitrile formate] | – | – | IC90 [3]: 0.358 µM |

— patent publication US20230203043A1, “NOVEL IMIDAZOPYRAZINE DERIVATIVES” (Hoffmann-La Roche Inc., priority 2020, published 2023)
